target: T1, wild-type human ALK (cytoplasmic domain, amino acids 1058-1620, N-terminal GST fusion) (Homo sapiens, UniProt Q9UM73); test: ALK Inhibition in Enzyme Assay (Lance TR-FRET kinase assay); type: biochemical; conditions: not given
T1 construct: The cytoplasmic domain (amino acids 1058-1620) of wild-type human ALK; GST (N); made in house; host or cells: SF9 insect cells
Method in brief: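 Purified enzyme phosphorylated a biotinylated peptide substrate for 90 minutes at room temperature. Reactions were stopped with 20 mM EDTA in 50 mM Tris (pH 7.5), 100 mM NaCl, 0.05% BSA, 0.1% Tween-20. Phosphopeptide was detected by TR-FRET with SA-APC and Eu-W1024 anti-phosphotyrosine antibody PT66, excitation 320 nm.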

T1 sequence (Q9UM73 1058-1620): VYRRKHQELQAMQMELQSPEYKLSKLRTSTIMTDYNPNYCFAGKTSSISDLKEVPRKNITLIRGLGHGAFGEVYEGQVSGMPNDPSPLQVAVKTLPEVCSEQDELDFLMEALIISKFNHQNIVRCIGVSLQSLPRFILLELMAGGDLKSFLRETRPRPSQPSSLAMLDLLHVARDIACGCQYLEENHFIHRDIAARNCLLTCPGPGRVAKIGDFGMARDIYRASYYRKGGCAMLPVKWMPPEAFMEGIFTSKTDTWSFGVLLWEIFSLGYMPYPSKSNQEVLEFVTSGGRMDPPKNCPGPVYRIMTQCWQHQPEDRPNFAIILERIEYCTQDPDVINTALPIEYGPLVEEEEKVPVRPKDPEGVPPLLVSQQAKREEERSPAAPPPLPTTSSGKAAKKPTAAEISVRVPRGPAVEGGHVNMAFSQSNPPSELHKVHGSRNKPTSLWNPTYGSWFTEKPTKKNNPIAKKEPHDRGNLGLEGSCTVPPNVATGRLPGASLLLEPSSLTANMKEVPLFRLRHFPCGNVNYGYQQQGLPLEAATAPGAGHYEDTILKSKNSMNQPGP

First: CNc1ccc(C(=O)/N=c2\[nH]c3cnc(OCCN4CCCCC4)cc3n2[C@H]2CC[C@@H](C(=O)NC(C)C)CC2)cc1 [Example 105, (E)-N-(1-(cis-4-(Isopropylcarbamoyl)cyclohexyl)-6-(2-(piperidin-1-yl)ethoxy)-1H-imidazo[4,5-c]pyridin-2(3H)-ylidene)-4-(methylamino)benzamide]
Second: CC(C)NC(=O)[C@H]1CC[C@@H](n2/c(=N/C(=O)c3ccc(S(C)(=O)=O)cc3)[nH]c3cnc(OCCN4CCCCC4)cc32)CC1 [Example 120, (E)-N-(1-(cis-4-(Isopropylcarbamoyl)cyclohexyl)-6-(2-(piperidin-1-yl)ethoxy)-1H-imidazo[4,5-c]pyridin-2(3H)-ylidene)-4-(methylsulfonyl)benzamide]
The IC50 of the first is higher: 1000 to 5000 nM for the first, 100 to 1000 nM for the second. The second is the more potent here.

CC(C)NC(=O)[C@H]1CC[C@@H](n2/c(=N/C(=O)c3ccnc(F)c3)[nH]c3cnc(OCCN4CCCCC4)cc32)CC1 [Example 106, (E)-2-Fluoro-N-(1-(cis-4-(isopropylcarbamoyl)cyclohexyl)-6-(2-(piperidin-1-yl)ethoxy)-1H-imidazo[4,5-c]pyridin-2(3H)-ylidene)isonicotinamide] and CC(C)NC(=O)[C@H]1CC[C@@H](n2/c(=N/C(=O)c3cccc(F)c3)[nH]c3cnc(OCCN4CCCCC4)cc32)CC1 [Example 108, (E)-3-Fluoro-N-(1-(cis-4-(isopropylcarbamoyl)cyclohexyl)-6-(2-(piperidin-1-yl)ethoxy)-1H-imidazo[4,5-c]pyridin-2(3H)-ylidene)benzamide] cannot be ordered by IC50: under 50 nM for the first, under 50 nM for the second.

First: CC(C)NC(=O)[C@H]1CC[C@@H](n2/c(=N/C(=O)c3ccc(F)c(F)c3)[nH]c3cnc(OCCN4CCCCC4)cc32)CC1 [Example 107, (E)-3,4-Difluoro-N-(1-(cis-4-(isopropylcarbamoyl)cyclohexyl)-6-(2-(piperidin-1-yl)ethoxy)-1H-imidazo[4,5-c]pyridin-2(3H)-ylidene)benzamide]
Second: COc1cc(C(=O)/N=c2\[nH]c3cnc(OCCN4CCCCC4)cc3n2[C@H]2CC[C@@H](C(=O)NC(C)C)CC2)ccc1F [Example 113, (E)-4-Fluoro-N-(1-(cis-4-(isopropylcarbamoyl)cyclohexyl)-6-(2-(piperidin-1-yl)ethoxy)-1H-imidazo[4,5-c]pyridin-2(3H)-ylidene)-3-methoxybenzamide]
The IC50 of the first is lower: under 50 nM for the first, 100 to 1000 nM for the second.

First: CC(C)NC(=O)[C@H]1CC[C@@H](n2/c(=N/C(=O)c3ccc4ccn(C)c4c3)[nH]c3cnc(OCCN4CCCCC4)cc32)CC1 [Example 109, (E)-N-(1-(cis-4-(Isopropylcarbamoyl)cyclohexyl)-6-(2-(piperidin-1-yl)ethoxy)-1H-imidazo[4,5-c]pyridin-2(3H)-ylidene)-1-methyl-1H-indole-6-carboxamide]
Second: CC(C)NC(=O)[C@H]1CC[C@@H](n2/c(=N/C(=O)c3cccc(Cl)c3)[nH]c3cnc(OCCN4CCCCC4)cc32)CC1 [Example 119, (E)-3-Chloro-N-(1-(cis-4-(isopropylcarbamoyl)cyclohexyl)-6-(2-(piperidin-1-yl)ethoxy)-1H-imidazo[4,5-c]pyridin-2(3H)-ylidene)benzamide]
The IC50 of the first is higher: 1000 to 5000 nM for the first, under 50 nM for the second. The second is the more potent here.

First: CC(C)NC(=O)[C@H]1CC[C@@H](n2/c(=N/C(=O)c3ccccn3)[nH]c3cnc(OCCN4CCCCC4)cc32)CC1 [Example 110, (E)-N-(1-(cis-4-(Isopropylcarbamoyl)cyclohexyl)-6-(2-(piperidin-1-yl)ethoxy)-1H-imidazo[4,5-c]pyridin-2(3H)-ylidene)picolinamide]
Second: COc1cccc(C(=O)/N=c2\[nH]c3cnc(OCCN4CCCCC4)cc3n2[C@H]2CC[C@@H](C(=O)NC(C)C)CC2)c1 [Example 116, (E)-N-(1-(cis-4-(Isopropylcarbamoyl)cyclohexyl)-6-(2-(piperidin-1-yl)ethoxy)-1H-imidazo[4,5-c]pyridin-2(3H)-ylidene)-3-methoxybenzamide]
The IC50 of the first is higher: 1000 to 5000 nM for the first, 50 to 100 nM for the second. The second is the more potent here.

CC(C)NC(=O)[C@H]1CC[C@@H](n2/c(=N/C(=O)c3cc(F)cc(C#N)c3)[nH]c3cnc(OCCN4CCCCC4)cc32)CC1 [Example 111, (E)-3-Cyano-5-fluoro-N-(1-(cis-4-(isopropylcarbamoyl)cyclohexyl)-6-(2-(piperidin-1-yl)ethoxy)-1H-imidazo[4,5-c]pyridin-2(3H)-ylidene)benzamide] and CC(C)NC(=O)[C@H]1CC[C@@H](n2/c(=N/C(=O)c3cc(F)cc(Cl)c3)[nH]c3cnc(OCCN4CCCCC4)cc32)CC1 [Example 115, (E)-3-Chloro-5-fluoro-N-(1-(cis-4-(isopropylcarbamoyl)cyclohexyl)-6-(2-(piperidin-1-yl)ethoxy)-1H-imidazo[4,5-c]pyridin-2 (3H)-ylidene)benzamide] cannot be ordered by IC50: under 50 nM for the first, under 50 nM for the second.

Compared with CC(C)NC(=O)[C@H]1CC[C@@H](n2/c(=N/C(=O)C3CCCCC3)[nH]c3cnc(OCCN4CCCCC4)cc32)CC1 [Example 112, cis-4-((E)-2-(Cyclohexanecarbonylimino)-6-(2-(piperidin-1-yl)ethoxy)-2,3-dihydro-1H-imidazo[4,5-c]pyridin-1-yl)-N-isopropylcyclohexanecarboxamide], COc1cc(F)cc(C(=O)/N=c2\[nH]c3cnc(OCCN4CCCCC4)cc3n2[C@H]2CC[C@@H](C(=O)NC(C)C)CC2)c1 [Example 117, (E)-3-Fluoro-N-(1-(cis-4-(isopropylcarbamoyl)cyclohexyl)-6-(2-(piperidin-1-yl)ethoxy)-1H-imidazo[4,5-c]pyridin-2(3H)-ylidene)-5-methoxybenzamide] is lower in IC50: 5000 to 10000 nM for the first, 50 to 100 nM for the second.

CC(C)NC(=O)[C@H]1CC[C@@H](n2/c(=N/C(=O)c3ccc(F)c(C(F)(F)F)c3)[nH]c3cnc(OCCN4CCCCC4)cc32)CC1 [Example 114, (E)-4-Fluoro-N-(1-(cis-4-(isopropylcarbamoyl)cyclohexyl)-6-(2-(piperidin-1-yl)ethoxy)-1H-imidazo[4,5-c]pyridin-2(3H)-ylidene)-3-(trifluoromethyl)benzamide] and CC(C)NC(=O)[C@H]1CC[C@@H](n2/c(=N/C(=O)c3cccc(OC(F)(F)F)c3)[nH]c3cnc(OCCN4CCCCC4)cc32)CC1 [Example 121, (E)-N-(1-(cis-4-(Isopropylcarbamoyl)cyclohexyl)-6-(2-(piperidin-1-yl)ethoxy)-1H-imidazo[4,5-c]pyridin-2(3H)-ylidene)-3-(trifluoromethoxy)benzamide] fall in the same range of IC50: 50 to 100 nM for the first, 50 to 100 nM for the second.

CC(C)NC(=O)[C@H]1CC[C@@H](n2/c(=N/C(=O)c3ccc(C(N)=O)cc3)[nH]c3cnc(OCCN4CCCCC4)cc32)CC1 [Example 122, (E)-N-1-(1-(cis-4-(Isopropylcarbamoyl)cyclohexyl)-6-(2-(piperidin-1-yl)ethoxy)-1H-imidazo[4,5-c]pyridin-2(3H)-ylidene)terephthalamide] and C=CCNS(=O)(=O)c1cccc(C(=O)/N=c2\[nH]c3cnc(OCCN4CCCCC4)cc3n2[C@H]2CC[C@H](C(=O)NC(C)C)CC2)c1 [Example 131, (E)-3-(N-Allylsulfamoyl)-N-(1-(trans-4-(isopropylcarbamoyl)cyclohexyl)-6-(2-(piperidin-1-yl)ethoxy)-1H-imidazo[4,5-c]pyridin-2(3H)-ylidene)benzamide] fall in the same range of IC50: 100 to 1000 nM for the first, 100 to 1000 nM for the second.

N#Cc1ccc(C(=O)/N=c2\[nH]c3cnc(OCCN4CCCCC4)cc3n2[C@H]2CC[C@@H](C(=O)N3CCNCC3)CC2)cc1 [Example 123, (E)-4-Cyano-N-(1-(cis-4-(piperazine-1-carbonyl)cyclohexyl)-6-(2-(piperidin-1-yl)ethoxy)-1H-imidazo[4,5-c]pyridin-2(3H)-ylidene)benzamide] and CC(C)NC(=O)[C@H]1CC[C@@H](n2/c(=N/C(=O)c3ccc(C#N)cc3)[nH]c3cnc(OCCN4CCC(C(C)(C)O)CC4)cc32)CC1 [Example 129, (E)-4-Cyano-N-(6-(2-(4-(2-hydroxypropan-2-yl)piperidin-1-yl)ethoxy)-1-(cis-4-(isopropylcarbamoyl)cyclohexyl)-1H-imidazo[4,5-c]pyridin-2(3H)-ylidene)benzamide] cannot be ordered by IC50: under 50 nM for the first, under 50 nM for the second.

CC(C)NC(=O)[C@H]1CC[C@@H](n2/c(=N/C(=O)c3cccc(F)c3)[nH]c3cnc(N4CCC(C(C)(C)O)CC4)cc32)CC1 [Example 125, (E)-3-Fluoro-N-(6-(4-(2-hydroxypropan-2-yl)piperidin-1-yl)-1-(cis-4-(isopropylcarbamoyl)cyclohexyl)-1H-imidazo[4,5-c]pyridin-2(3H)-ylidene)benzamide] and CC(C)NC(=O)[C@H]1CC[C@@H](n2/c(=N/C(=O)c3ccc(F)cc3)[nH]c3cnc(OCCN4CCC(C(C)(C)O)CC4)cc32)CC1 [Example 128, (E)-4-Fluoro-N-(6-(2-(4-(2-hydroxypropan-2-yl)piperidin-1-yl)ethoxy)-1-(cis-4-(isopropylcarbamoyl)cyclohexyl)-1H-imidazo[4,5-c]pyridin-2(3H)-ylidene)benzamide] cannot be ordered by IC50: under 50 nM for the first, under 50 nM for the second.

CC(C)NC(=O)[C@H]1CC[C@@H](n2/c(=N/C(=O)c3ccc(C#N)cc3)[nH]c3cnc(OCCO)cc32)CC1 [Example 126, (E)-4-Cyano-N-(6-(2-hydroxyethoxy)-1-(cis-4-(isopropylcarbamoyl)cyclohexyl)-1H-imidazo[4,5-c]pyridin-2(3H)-ylidene)benzamide] and CC(C)NC(=O)[C@H]1CC[C@@H](n2/c(=N/C(=O)c3ccc(F)cc3)[nH]c3cnc(OCCO)cc32)CC1 [Example 127, (E)-4-Fluoro-N-(6-(2-hydroxyethoxy)-1-(cis-4-(isopropylcarbamoyl)cyclohexyl)-1H-imidazo[4,5-c]pyridin-2(3H)-ylidene)benzamide] cannot be ordered by IC50: under 50 nM for the first, under 50 nM for the second.

same assay, conditions: 2 nM enzyme, ATP 40 μM (Km apparent), 90 minutes at room temperature; mean of three replicates

With CC(C)NC(=O)[C@H]1CC[C@@H](n2/c(=N/C(=O)c3ccc(F)c(Cl)c3)[nH]c3cnc(OCCN4CCCCC4)cc32)CC1 [Example 118, (E)-3-Chloro-4-fluoro-N-(1-(cis-4-(isopropylcarbamoyl)cyclohexyl)-6-(2-(piperidin-1-yl)ethoxy)-1H-imidazo[4,5-c]pyridin-2(3H)-ylidene)benzamide] the IC50 was under 50 nM.
